Measurements from US9120812B2, “Pyrimidooxazocine derivatives as mTOR-inhibitors” (SANOFI, priority 2012, dated 2015).
Read-outs that look alike come from different tables or passages of the source.

Columns and labels:
[1] = biological target: mTOR (human recombinant aa mTOR 1360-2549) (Homo sapiens (Human), UniProt P42345); experiment: mTOR enzymatic test by TR-FRET (phosphorylation of GFP-4EBP1); format: biochemical
How it was run: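 TR-FRET detection of GFP-4EBP1 phosphorylation by a terbium-labelled anti-phospho-Thr46 antibody. Kinase reaction ran 30 min at room temperature, was quenched with EDTA (10 mM final) plus Tb-antibody (2 nM final) and left 60 min. Emission at 520 and 490 nm after 340 nm excitation, reported as the 520/490 ratio.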

PI3Kα (p110α/p85α) = PI3Kα (p110α/p85α) (Homo sapiens (Human), UniProt P42336); experiment: PI3Kα enzymatic test by measuring the consumption of ATP; format: biochemical
PI3Kα (p110α/p85α), sequence (P42336 whole entry): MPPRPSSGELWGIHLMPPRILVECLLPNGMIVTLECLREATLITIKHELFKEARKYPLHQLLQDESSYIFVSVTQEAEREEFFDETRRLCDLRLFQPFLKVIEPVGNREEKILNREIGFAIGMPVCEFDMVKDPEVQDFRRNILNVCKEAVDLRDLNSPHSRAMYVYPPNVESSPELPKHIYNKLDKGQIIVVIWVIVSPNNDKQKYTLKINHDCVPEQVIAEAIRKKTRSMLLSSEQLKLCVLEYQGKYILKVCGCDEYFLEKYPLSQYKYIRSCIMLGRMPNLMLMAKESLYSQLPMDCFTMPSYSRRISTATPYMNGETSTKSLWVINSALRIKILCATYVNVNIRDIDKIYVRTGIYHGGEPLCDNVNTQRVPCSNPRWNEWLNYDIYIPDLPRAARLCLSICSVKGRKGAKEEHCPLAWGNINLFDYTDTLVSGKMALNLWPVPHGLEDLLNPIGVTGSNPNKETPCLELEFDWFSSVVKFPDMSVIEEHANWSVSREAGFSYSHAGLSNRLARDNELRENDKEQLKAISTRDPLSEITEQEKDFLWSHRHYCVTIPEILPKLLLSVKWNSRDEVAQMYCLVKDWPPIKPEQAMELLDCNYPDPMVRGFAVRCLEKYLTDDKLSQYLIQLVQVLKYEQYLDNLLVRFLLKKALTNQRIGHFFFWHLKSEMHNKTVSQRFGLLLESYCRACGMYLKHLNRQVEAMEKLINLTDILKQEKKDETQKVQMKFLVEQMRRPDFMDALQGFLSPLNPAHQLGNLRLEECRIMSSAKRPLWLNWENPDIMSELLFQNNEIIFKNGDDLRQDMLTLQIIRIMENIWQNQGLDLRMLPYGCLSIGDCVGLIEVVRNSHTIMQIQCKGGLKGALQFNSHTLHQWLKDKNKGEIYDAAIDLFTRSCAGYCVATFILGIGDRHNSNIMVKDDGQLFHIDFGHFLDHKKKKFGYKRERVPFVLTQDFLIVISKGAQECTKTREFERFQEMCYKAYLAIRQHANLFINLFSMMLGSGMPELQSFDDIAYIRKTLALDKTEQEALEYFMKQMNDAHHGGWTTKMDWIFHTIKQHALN
PI3Kα (p110α/p85α), sequence (P27986 whole entry partner): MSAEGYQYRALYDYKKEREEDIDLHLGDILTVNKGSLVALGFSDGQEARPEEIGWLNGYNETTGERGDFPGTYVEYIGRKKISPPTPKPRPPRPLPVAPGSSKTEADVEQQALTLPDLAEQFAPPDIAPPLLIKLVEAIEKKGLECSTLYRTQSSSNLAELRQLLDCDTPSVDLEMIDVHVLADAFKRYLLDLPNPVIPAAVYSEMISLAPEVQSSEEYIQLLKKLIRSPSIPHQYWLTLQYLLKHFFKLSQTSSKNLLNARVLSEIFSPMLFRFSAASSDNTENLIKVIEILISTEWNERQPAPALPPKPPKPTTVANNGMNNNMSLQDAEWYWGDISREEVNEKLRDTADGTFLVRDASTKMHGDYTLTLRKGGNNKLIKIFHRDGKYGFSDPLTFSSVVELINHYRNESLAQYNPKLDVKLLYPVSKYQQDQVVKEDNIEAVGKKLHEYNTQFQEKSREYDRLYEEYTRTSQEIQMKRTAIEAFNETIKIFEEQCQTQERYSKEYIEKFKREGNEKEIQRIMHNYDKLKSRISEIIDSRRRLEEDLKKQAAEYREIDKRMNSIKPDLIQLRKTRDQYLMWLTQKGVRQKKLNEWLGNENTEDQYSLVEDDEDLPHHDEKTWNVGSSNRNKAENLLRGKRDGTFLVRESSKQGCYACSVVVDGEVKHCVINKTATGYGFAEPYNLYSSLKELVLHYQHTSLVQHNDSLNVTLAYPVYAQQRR
How it was run: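 p110α/p85α (1.7 μg/ml) with 50 μM PIP2 and 2 μM ATP in pH 7.5 Tris buffer with EGTA, MgCl2, Chaps, DTT; reaction 90 min. Remaining ATP measured by luciferin/luciferase luminescence; IC50 from threefold serial dilutions spanning at least 10 000-fold.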

U87MG tumour cells = experiment: Test of in vitro proliferation of U87MG tumour cells; format: cell-based; conditions: U87MG cells, 72 hours, read-out: U87 Cell Proliferation IC50
Procedure: Model 4: Test of in vitro Proliferation of U87MG Tumour Cells.
The cell growth is determined with the reagent CellTiter 96 AQueous One Solution Cell Proliferation Assay from Promega (Cat. No. G3581).

[2] = Homo sapiens, U-87 MG, read-out: U87 Akt-pS473 % Inhibition or IC50, nM (IC50), U87MG cells

mTOR (human recombinant aa mTOR 1360-2549), sequence (P42345 1360-2549): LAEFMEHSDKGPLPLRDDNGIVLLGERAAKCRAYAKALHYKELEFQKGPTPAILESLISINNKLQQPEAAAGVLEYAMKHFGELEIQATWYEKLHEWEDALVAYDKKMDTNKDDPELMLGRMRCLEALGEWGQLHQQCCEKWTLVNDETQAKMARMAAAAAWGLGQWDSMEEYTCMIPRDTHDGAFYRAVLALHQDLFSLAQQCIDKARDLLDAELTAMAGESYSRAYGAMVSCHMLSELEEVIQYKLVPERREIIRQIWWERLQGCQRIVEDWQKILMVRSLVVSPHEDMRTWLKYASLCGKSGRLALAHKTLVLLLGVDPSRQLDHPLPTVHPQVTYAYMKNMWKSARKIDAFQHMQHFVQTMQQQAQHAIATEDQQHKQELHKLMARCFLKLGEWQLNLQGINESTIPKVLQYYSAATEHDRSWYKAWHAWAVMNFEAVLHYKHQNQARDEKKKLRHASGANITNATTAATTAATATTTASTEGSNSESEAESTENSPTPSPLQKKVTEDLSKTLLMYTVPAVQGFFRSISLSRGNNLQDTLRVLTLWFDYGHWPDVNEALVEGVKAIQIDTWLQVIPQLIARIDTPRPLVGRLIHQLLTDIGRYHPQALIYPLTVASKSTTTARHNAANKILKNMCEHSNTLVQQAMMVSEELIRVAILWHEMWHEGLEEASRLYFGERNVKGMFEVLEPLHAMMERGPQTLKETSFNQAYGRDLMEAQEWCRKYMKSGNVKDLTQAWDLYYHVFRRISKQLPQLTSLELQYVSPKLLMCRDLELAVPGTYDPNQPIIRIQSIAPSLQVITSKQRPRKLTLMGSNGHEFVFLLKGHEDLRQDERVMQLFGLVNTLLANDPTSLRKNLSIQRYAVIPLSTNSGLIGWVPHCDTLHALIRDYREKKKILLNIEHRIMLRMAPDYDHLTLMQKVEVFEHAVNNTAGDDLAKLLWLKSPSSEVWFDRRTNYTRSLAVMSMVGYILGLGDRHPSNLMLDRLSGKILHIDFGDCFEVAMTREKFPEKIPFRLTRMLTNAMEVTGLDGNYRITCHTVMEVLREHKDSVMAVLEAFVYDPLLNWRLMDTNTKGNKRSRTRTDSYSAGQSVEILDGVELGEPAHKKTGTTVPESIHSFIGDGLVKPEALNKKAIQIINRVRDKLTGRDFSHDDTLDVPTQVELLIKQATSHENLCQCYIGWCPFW

SMILES | IC50 [1] | PI3Ka IC50 (PI3Kα (p110α/p85α)) | IC50 (U87MG tumour cells; Homo sapiens, U-87 MG, 72 h) | IC50 (Akt-pS473 in U87MG cells; [2]) | IC50 (U87MG tumour cells) | IC50 (Akt-pS473 in U87MG cells; read-out: U87 Akt-pS473 % Inhibition or IC50, nM (IC50), U87MG cells)
CCN1CC(C)(C)Oc2nc(N3CCOC[C@@H]3C)nc(-c3ccc(NC(=O)Nc4ccn(C)n4)c(F)c3)c2C1=O [Example 166, 1-{4-[6-Ethyl-8,8-dimethyl-2-((S)-3-methylmorpholin-4-yl)-5-oxo-5,6,7,8-tetrahydro-9-oxa-1,3,6-triazabenzocyclohepten-4-yl]-2-fluorophenyl}-3-(1-methyl-1H-pyrazol-3-yl)urea] | 86 nM | 2300 nM | 1270 nM | 278 nM | – | –
CCN1CC(C)(C)Oc2nc(N3CCOC[C@@H]3C)nc(-c3ccc(NC(=O)Nc4cnc(C)cn4)c(F)c3)c2C1=O [Example 167, 1-{4-[6-Ethyl-8,8-dimethyl-2-((S)-3-methylmorpholin-4-yl)-5-oxo-5,6,7,8-tetrahydro-9-oxa-1,3,6-triazabenzocyclohepten-4-yl]-2-fluorophenyl}-3-(5-methylpyrazin-2-yl)urea] | 62 nM | 3520 nM | 500 nM | 158 nM | – | –
CCN1CC(C)(C)Oc2nc(N3CCOC[C@@H]3C)nc(-c3ccc(NC(=O)Nc4ccc(C)cn4)cc3)c2C1=O [Example 168, 1-{4-[6-Ethyl-8,8-dimethyl-2-((S)-3-methylmorpholin-4-yl)-5-oxo-5,6,7,8-tetrahydro-9-oxa-1,3,6-triazabenzocyclohepten-4-yl]phenyl}-3-(5-methylpyridin-2-yl)urea] | 18 nM | 1385 nM | 231 nM | 48 nM | – | –
CCN1CC(C)(C)Oc2nc(N3CCOC[C@@H]3C)nc(-c3ccc(NC(=O)Nc4ccc(C)cn4)cc3)c2C1=O [Example 169, 1-{4-[6-Ethyl-8,8-dimethyl-2-((S)-3-methylmorpholin-4-yl)-5-oxo-5,6,7,8-tetrahydro-9-oxa-1,3,6-triazabenzocyclohepten-4-yl]phenyl}-3-(5-methylpyridin-2-yl)urea] | 31 nM | 1450 nM | – | – | 299 nM | 26 nM
CCN1CC(C)(C)Oc2nc(N3CCOC[C@@H]3C)nc(-c3ccc(NC(=O)Nc4nnc(C)o4)c(F)c3)c2C1=O [Example 170, 1-{4-[6-Ethyl-8,8-dimethyl-2-((S)-3-methylmorpholin-4-yl)-5-oxo-5,6,7,8-tetrahydro-9-oxa-1,3,6-triazabenzocyclohepten-4-yl]-2-fluorophenyl}-3-(5-methyl-[1,3,4]oxadiazol-2-yl)urea] | 106 nM | 824 nM | 557 nM | 94 nM | – | –
CCN1CC(C)(C)Oc2nc(N3CCOC[C@@H]3C)nc(-c3ccc(NC(=O)Nc4ccc(N5CCN(C)CC5)nc4)c(F)c3)c2C1=O [Example 171, 1-{4-[6-Ethyl-8,8-dimethyl-2-((S)-3-methylmorpholin-4-yl)-5-oxo-5,6,7,8-tetrahydro-9-oxa-1,3,6-triazabenzocyclohepten-4-yl]-2-fluorophenyl}-3-[6-(4-methylpiperazin-1-yl)pyridin-3-yl]urea] | 37 nM | 308 nM | 91 nM | 41 nM | – | –
COCCN1CC(C)(C)Oc2nc(N3CC4CCC(C3)O4)nc(-c3ccc(NC(=O)Nc4ccon4)cc3)c2C1=O [Example 172, 1-Isoxazol-3-yl-3-{4-[6-(2-methoxyethyl)-8,8-dimethyl-2-(8-oxa-3-azabicyclo[3.2.1]oct-3-yl)-5-oxo-5,6,7,8-tetrahydro-9-oxa-1,3,6-triazabenzocyclohepten-4-yl]phenyl}urea] | 20 nM | <10000 nM | 198 nM | 98 nM | – | –
CCN1CC(C)(C)Oc2nc(N3CCOC[C@@H]3C)nc(-c3ccc(NC(=O)Nc4ccc(OC)cn4)cc3)c2C1=O [Example 173, 1-{4-[6-Ethyl-8,8-dimethyl-2-((S)-3-methylmorpholin-4-yl)-5-oxo-5,6,7,8-tetrahydro-9-oxa-1,3,6-triazabenzocyclohepten-4-yl]phenyl}-3-(5-methoxypyridin-2-yl)urea] | 12 nM | 1602 nM | 242 nM | 42 nM | – | –
CCN1CC(C)(C)Oc2nc(N3CCOC[C@@H]3C)nc(-c3ccc(NC(=O)Nc4ccc(N5CCN(C)CC5)nc4)cc3)c2C1=O [Example 174, 1-{4-[6-Ethyl-8,8-dimethyl-2-((S)-3-methylmorpholin-4-yl)-5-oxo-5,6,7,8-tetrahydro-9-oxa-1,3,6-triazabenzocyclohepten-4-yl]phenyl}-3-[6-(4-methylpiperazin-1-yl)pyridin-3-yl]urea] | 22 nM | 326 nM | 125 nM | 36 nM | – | –
CCN1CC(C)(C)Oc2nc(N3CC4CCC(C3)O4)nc(-c3ccc(NC(=O)Nc4ccc(C(=O)N(C)CCN(C)C)cc4)cc3)c2C1=O [Example 176, N-(2-Dimethylaminoethyl)-4-(3-{4-[6-ethyl-8,8-dimethyl-2-(8-oxa-3-azabicyclo[3.2.1]oct-3-yl)-5-oxo-5,6,7,8-tetrahydro-9-oxa-1,3,6-triazabenzocyclohepten-4-yl]phenyl}ureido)-N-methylbenzamide] | 69 nM | 100 nM | 83 nM | 314 nM | – | –
CCN1CC(C)(C)Oc2nc(N3CC4CCC(C3)O4)nc(-c3ccc(NC(=O)Nc4ccc(C(=O)N5CCC(N(C)C)CC5)cc4)cc3)c2C1=O [Example 177, 1-[4-(4-Dimethylaminopiperidine-1-carbonyl)phenyl]-3-{4-[6-ethyl-8,8-dimethyl-2-(8-oxa-3-azabicyclo[3.2.1]oct-3-yl)-5-oxo-5,6,7,8-tetrahydro-9-oxa-1,3,6-triazabenzocyclohepten-4-yl]phenyl}urea] | 84 nM | 87 nM | 57 nM | 435 nM | – | –
COCCN1CC(C)(C)Oc2nc(N3CC4CCC(C3)O4)nc(-c3ccc(NC(=O)Nc4ccc(OC)nc4)c(F)c3)c2C1=O [Example 178, 1-{2-Fluoro-4-[6-(2-methoxyethyl)-8,8-dimethyl-2-(8-oxa-3-azabicyclo[3.2.1]oct-3-yl)-5-oxo-5,6,7,8-tetrahydro-9-oxa-1,3,6-triazabenzocyclohepten-4-yl]phenyl}-3-(6-methoxypyridin-3-yl)urea] | 45 nM | >10000 nM | 252 nM | 104 nM | – | –
COCCN1CC(C)(C)Oc2nc(N3CC4CCC(C3)O4)nc(-c3ccc(NC(=O)Nc4ccon4)c(F)c3)c2C1=O [Example 179, 1-{2-Fluoro-4-[6-(2-methoxyethyl)-8,8-dimethyl-2-(8-oxa-3-azabicyclo[3.2.1]oct-3-yl)-5-oxo-5,6,7,8-tetrahydro-9-oxa-1,3,6-triazabenzocyclohepten-4-yl]phenyl}-3-isoxazol-3-ylurea] | 58 nM | >10000 nM | 1330 nM | 331 nM | – | –
COCCN1CC(C)(C)Oc2nc(N3CCOC[C@@H]3C)nc(-c3ccc(NC(=O)Nc4ccon4)cc3)c2C1=O [Example 180, 1-Isoxazol-3-yl-3-{4-[6-(2-methoxyethyl)-8,8-dimethyl-2-((S)-3-methylmorpholin-4-yl)-5-oxo-5,6,7,8-tetrahydro-9-oxa-1,3,6-triazabenzocyclohepten-4-yl]phenyl}urea] | 11 nM | 604 nM | 146 nM | 65 nM | – | –
CCN1CC(C)(C)Oc2nc(N3CCOC[C@@H]3C)nc(-c3ccc(NC(=O)Nc4cc(OC)ccn4)c(F)c3)c2C1=O [Example 181, 1-{4-[6-Ethyl-8,8-dimethyl-2-((S)-3-methylmorpholin-4-yl)-5-oxo-5,6,7,8-tetrahydro-9-oxa-1,3,6-triazabenzocyclohepten-4-yl]-2-fluorophenyl}-3-(4-methoxypyridin-2-yl)urea] | 74 nM | 7650 nM | 1320 nM | 285 nM | – | –
CCN1CC(C)(C)Oc2nc(N3CCOC[C@@H]3C)nc(-c3ccc(NC(=O)Nc4cn(C)cn4)c(F)c3)c2C1=O [Example 182, 1-{4-[6-Ethyl-8,8-dimethyl-2-((S)-3-methylmorpholin-4-yl)-5-oxo-5,6,7,8-tetrahydro-9-oxa-1,3,6-triazabenzocyclohepten-4-yl]-2-fluorophenyl}-3-(1-methyl-1H-imidazol-4-yl)urea] | 26 nM | 159 nM | 2930 nM | 407 nM | – | –
CCN1CC(C)(C)Oc2nc(N3CC4CCC(C3)O4)nc(-c3ccc(Nc4nnc(-c5ccc(OC)nc5)[nH]4)c(F)c3)c2C1=O [Example 183, 6-Ethyl-4-{3-fluoro-4-[5-(6-methoxypyridin-3-yl)-4H-[1,2,4]triazol-3-ylamino]phenyl}-8,8-dimethyl-2-(8-oxa-3-azabicyclo[3.2.1]oct-3-yl)-7,8-dihydro-6H-9-oxa-1,3,6-triazabenzocyclohepten-5-one] | 128 nM | >10000 nM | 752 nM | 165 nM | – | –
